These results are taken from patent US7939559B2, “Lipase inhibitors” (Suntory Holdings Limited, priority 2004, dated 2011).

The assay addresses T1, porcine pancreatic lipase (Sus scrofa, UniProt P00591).
T1 construct: purchased Sigma
T1 sequence (P00591 1-450): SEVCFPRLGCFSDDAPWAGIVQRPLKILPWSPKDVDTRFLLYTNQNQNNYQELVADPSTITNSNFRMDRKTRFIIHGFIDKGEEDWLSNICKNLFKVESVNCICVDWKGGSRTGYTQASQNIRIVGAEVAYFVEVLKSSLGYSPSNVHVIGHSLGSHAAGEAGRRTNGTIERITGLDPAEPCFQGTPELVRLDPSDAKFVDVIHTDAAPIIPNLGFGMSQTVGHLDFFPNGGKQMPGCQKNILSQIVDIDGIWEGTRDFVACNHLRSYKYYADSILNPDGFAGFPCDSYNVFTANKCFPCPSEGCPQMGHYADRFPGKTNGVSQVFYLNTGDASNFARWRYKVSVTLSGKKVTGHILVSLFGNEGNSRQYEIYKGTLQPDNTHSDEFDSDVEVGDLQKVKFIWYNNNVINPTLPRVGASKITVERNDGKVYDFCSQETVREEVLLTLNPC
The assay is described as follows: Lipase inhibitory activity assay (4-MUO fluorescent substrate). It is filed as biochemical. As to conditions: for IC50 / lipase inhibitory activity (in words): porcine pancreatic lipase; for IC50: substrate 4-MUO, 25° C., 30 minutes, pH 8.0; for lipase inhibitory activity (in words): 4-MUO, comparison among major tea catechins. The method, then:
A lipase activity assay was performed by using the oleate ester of fluorescent 4-methylumbelliferone (4-MUO) as a substrate to measure the fluorescence of 4-methylumbelliferone produced by reaction.
The buffer used for the assay was 13 mM Tris-HCl (pH 8.0) containing 150 mM NaCl, 1.36 mM CaCl2. The enzyme assay was performed using a 0.1 M solution of the substrate 4-MUO (Sigma) in DMSO diluted 1:1000 in said buffer and a solution of porcine pancreatic lipase (Sigma) prepared at 400 U/ml also in said buffer.
An enzymatic reaction was started by adding 25 μl of the lipase/buffer solution after 50 μl of the 4-MUO/buffer solution and 25 μl of distilled water (or an aqueous solution of each sample) were added and mixed in a 96-well microplate at 25° C. After the reaction was performed for 30 minutes, the reaction was stopped by adding 100 μl of a 0.1 M citrate buffer (pH 4.2) and the fluorescence of 4-methylumbelliferone produced by the reaction (excitation 355 nm, emission 460 nm) was measured using a fluorescence plate reader (Fluoroskan Asent CF from Labsystems).
The inhibitory activity of each test sample was determined as IC50(μM), i.e. the amount of the sample giving 50% inhibition of the activity of the control (distilled water).

Entries after “also recorded” stand apart in the source; their conditions may differ.

Broadly, the IC50 is the concentration at which inhibition is half-maximal. A low value points to higher potency. `Oc1cc(O)c2c(c1)O[C@H](c1ccc(O)c(O)c1)[C@H](O)C2` [compound 2, (−)-epicatechin] returned an IC50 greater than 20000 nM.

`COc1cc(C(=O)O[C@@H]2Cc3c(O)cc(O)cc3O[C@@H]2c2ccc(O)c(O)c2)cc(O)c1O` [compound 4, (−)-epicatechin 3-O-(3′-O-methyl-gallate)] showed an IC50 of 680 nM.

Take `Oc1cc(O)c2c(c1)O[C@H](c1cc(O)c(O)c(O)c1)[C@H](O)C2` [compound 5, (−)-epigallocatechin]: the IC50 is greater than 20000 nM.

Regarding `O=C(O[C@@H]1Cc2c(O)cc(O)cc2O[C@@H]1c1cc(O)c(O)c(O)c1)c1cc(O)c(O)c(O)c1` [compound 6, (−)-epigallocatechin 3-O-gallate], the “lipase inhibitory activity (in words)” value is “showed lipase inhibitory activity; also recorded: showed the strongest activity among these catechins” and the concentration for half-maximal inhibition (IC50) is 349 nM.

Compound `O=C(Oc1cc(O)cc2c1C[C@@H](OC(=O)c1cc(O)c(O)c(O)c1)[C@@H](c1cc(O)c(O)c(O)c1)O2)c1cc(O)c(O)c(O)c1` [compound 7, (−)-epigallocatechin 3,5-di-O-gallate] registered an IC50 of 98 nM. Further, the “lipase inhibitory activity relative to EGCG (6)” value (fold higher activity than (−)-epigallocatechin 3-O-gallate) is reported as “about 3.5 times”.

The compound `O=C(/C=C/c1ccc(O)cc1)O[C@@H]1Cc2c(O)cc(O)cc2O[C@@H]1c1cc(O)c(O)c(O)c1` [compound 8, (−)-epigallocatechin 3-O-p-coumaroate] had an IC50 of 885 nM.

For `Oc1cc(O)c2c(c1)O[C@H](c1ccc(O)c(O)c1)[C@@H](O)C2` [compound 9, (+)-catechin], the “lipase inhibitory activity (in words)” value is given as “did not show lipase inhibitory activity” and the concentration for half-maximal inhibition (IC50) was greater than 20000 nM.

Regarding `O=C(O[C@@H]1Cc2c(O)cc(O)cc2O[C@H]1c1ccc(O)c(O)c1)c1cc(O)c(O)c(O)c1` [compound 10, (−)-catechin 3-O-gallate], the “lipase inhibitory activity (in words)” value is on record as “showed lipase inhibitory activity” and the half-inhibitory concentration (IC50) is 543 nM.

The compound `Oc1cc(O)c2c(c1)O[C@H](c1cc(O)c(O)c(O)c1)[C@@H](O)C2` [compound 11, (+)-gallocatechin] returned an IC50 greater than 20000 nM.

Regarding `O=C(O[C@@H]1Cc2c(O)cc(O)cc2O[C@H]1c1cc(O)c(O)c(O)c1)c1cc(O)c(O)c(O)c1` [compound 12, (−)-gallocatechin 3-O-gallate], the “lipase inhibitory activity (in words)” value is recorded as “showed lipase inhibitory activity” and half-maximal inhibition (IC50) was put at 437 nM.

Turning to `O=C(Oc1cc(O)cc2c1C[C@H](OC(=O)c1cc(O)c(O)c(O)c1)[C@@H](c1cc(O)c(O)c(O)c1)O2)c1cc(O)c(O)c(O)c1` [compound 13, (−)-gallocatechin 3,5-di-O-gallate], the midpoint of inhibition, the IC50, lay at 213 nM. Further, the “lipase inhibitory activity relative to GCG (12)” value (fold higher activity than (−)-gallocatechin 3-O-gallate) is “about twice higher”.

Compound `O=C1O[C@H]([C@@H](O)CO)C2(O)Oc3cc(O)c4c(c3C12O)O[C@H](c1cc(O)c(O)c(O)c1)[C@H](O)C4` (stereo partly drawn) [compound 14, 8-C-ascorbyl(−)-epigallocatechin] gave an IC50 of 646 nM.

`O=C(O[C@@H]1Cc2c(O)cc3c(c2O[C@@H]1c1cc(O)c(O)c(O)c1)C1(O)C(=O)O[C@H]([C@@H](O)CO)C1(O)O3)c1cc(O)c(O)c(O)c1` (stereo partly drawn) [compound 15, 8-C-ascorbyl(−)-epigallocatechin 3-O-gallate]: the half-inhibitory concentration (IC50) came out at 791 nM.

“(−)-epiafzelechin 3-O-gallate [compound 1]” returned an IC50 of 2580 nM.

In the case of “(−)-epicatechin 3-O-gallate [compound 3]”, the “lipase inhibitory activity (in words)” value is “showed lipase inhibitory activity” and the IC50 came out at 452 nM.
